Reference: article PMC12448892 (2025)

Columns and labels:
[1] = tested on: ADH1 4_G MUT (DNA, G4) GTGGCCGGTAGCGAGTGATAGCGAGTGAAAGACGATCGCTATCGTGCCGTAAGGAGGAAATGTGAGGTTGGGGG; assay: circular dichroism; conditions: 100 mM KCl; 10 mM Tris pH 7.5, 25 °C; 5 μM DNA, 10 μM PhenDC3; slight broadening of spectra
[2] = tested on: ADH1 5_G MUT (DNA, G4) GTGGCCGGTAGCGAGTGATAGCGAGTGAAAGACGATCGCTATCGTGCCGTAACGAGGAAATGTGAGGTTGGGGG; assay: circular dichroism; conditions: 100 mM KCl; 10 mM Tris pH 7.5, 25 °C; 5 μM DNA, 10 μM PhenDC3; slight broadening of spectra
[3] = tested on: ADH1 WT (DNA, G4) GGGGCCGGTAGCGAGTGATAGCGAGGGAAAGACGATCGCTATCGGGCCGTAAGGAGGAAATGGGAGGTTGGGGG; assay: circular dichroism; conditions: 100 mM KCl; 10 mM Tris pH 7.5, 25 °C; 5 μM DNA, 10 μM PhenDC3; slight broadening of spectra
[4] = tested on: ADH1 4_G MUT (DNA, G4) GTGGCCGGTAGCGAGTGATAGCGAGTGAAAGACGATCGCTATCGTGCCGTAAGGAGGAAATGTGAGGTTGGGGG; assay: ThT fluorescence titration; conditions: 10 mM KCl; 10 mM Tris pH 7.5, room temperature; 0.5 μM ThT; apparent
[5] = tested on: ADH1 WT (DNA, G4) GGGGCCGGTAGCGAGTGATAGCGAGGGAAAGACGATCGCTATCGGGCCGTAAGGAGGAAATGGGAGGTTGGGGG; assay: ThT fluorescence titration; conditions: 10 mM KCl; 10 mM Tris pH 7.5, room temperature; 0.5 μM ThT; apparent
[6] = tested on: ADH1 5_G MUT (DNA, G4) GTGGCCGGTAGCGAGTGATAGCGAGTGAAAGACGATCGCTATCGTGCCGTAACGAGGAAATGTGAGGTTGGGGG; assay: ThT fluorescence titration; conditions: 10 mM KCl; 10 mM Tris pH 7.5, room temperature; 0.5 μM ThT; apparent

binding [1]	binding [2]	binding [3]	k [4] [µM]	k [5] [µM]	k [6] [µM]	SMILES
yes	yes	yes	–	–	–	C[n+]1cc(NC(=O)c2ccc3ccc4ccc(C(=O)Nc5cc6ccccc6[n+](C)c5)nc4c3n2)cc2ccccc21
–	–	–	0.76 ± 0.06	0.65 ± 0.04	0.89 ± 0.13	Cc1ccc2c(c1)sc(-c1ccc(N(C)C)cc1)[n+]2C
